From ChEMBL document CHEMBL4823311, “Optimization of Naphthyridones into Selective TATA-Binding Protein Associated Factor 1 (TAF1) Bromodomain Inhibitors” (ACS Med Chem Lett, 2021)

Legend:
[1] = molecular target: T1, Peregrin (Homo sapiens, UniProt P55201); assay: Inhibition of human partial length BRPF1 (E627 to G740 residues) expressed in bacterial expression system by BROMOscan assay
T1 sequence (P55201 whole entry): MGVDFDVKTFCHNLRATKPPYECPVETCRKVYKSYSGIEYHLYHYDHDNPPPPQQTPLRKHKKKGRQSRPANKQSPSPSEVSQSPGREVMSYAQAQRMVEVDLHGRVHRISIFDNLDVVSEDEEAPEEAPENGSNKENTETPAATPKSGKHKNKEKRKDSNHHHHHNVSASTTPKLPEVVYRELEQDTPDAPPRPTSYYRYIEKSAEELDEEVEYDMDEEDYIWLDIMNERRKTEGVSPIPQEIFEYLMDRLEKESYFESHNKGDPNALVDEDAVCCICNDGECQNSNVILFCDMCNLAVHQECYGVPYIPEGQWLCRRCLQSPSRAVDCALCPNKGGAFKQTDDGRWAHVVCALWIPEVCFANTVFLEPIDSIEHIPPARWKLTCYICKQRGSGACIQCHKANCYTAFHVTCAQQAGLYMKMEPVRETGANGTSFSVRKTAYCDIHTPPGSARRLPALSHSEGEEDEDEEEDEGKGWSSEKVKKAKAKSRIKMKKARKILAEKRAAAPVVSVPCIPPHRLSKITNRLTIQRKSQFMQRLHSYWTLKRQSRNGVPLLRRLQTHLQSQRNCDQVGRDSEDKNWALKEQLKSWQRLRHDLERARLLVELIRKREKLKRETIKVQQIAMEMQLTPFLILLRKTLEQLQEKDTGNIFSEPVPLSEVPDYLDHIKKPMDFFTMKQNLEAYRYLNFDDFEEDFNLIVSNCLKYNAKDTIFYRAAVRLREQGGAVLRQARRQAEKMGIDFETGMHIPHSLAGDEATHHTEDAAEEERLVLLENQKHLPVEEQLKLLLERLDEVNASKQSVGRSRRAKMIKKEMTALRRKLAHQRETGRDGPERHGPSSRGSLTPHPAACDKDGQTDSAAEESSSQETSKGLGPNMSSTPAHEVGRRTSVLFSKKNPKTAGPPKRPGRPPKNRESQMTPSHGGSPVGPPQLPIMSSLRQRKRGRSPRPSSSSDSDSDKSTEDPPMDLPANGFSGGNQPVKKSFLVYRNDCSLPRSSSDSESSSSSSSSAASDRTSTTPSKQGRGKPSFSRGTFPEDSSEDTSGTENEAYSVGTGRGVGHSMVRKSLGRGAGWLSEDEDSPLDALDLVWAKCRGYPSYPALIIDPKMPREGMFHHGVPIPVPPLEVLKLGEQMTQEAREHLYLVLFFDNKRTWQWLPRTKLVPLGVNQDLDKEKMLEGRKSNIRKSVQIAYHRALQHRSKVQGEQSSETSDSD

[2] = molecular target: T2, Bromodomain-containing protein 4 (Homo sapiens, UniProt O60885); assay: Inhibition of BRD4 BD1 (unknown origin) by TR-FRET assay
[3] = molecular target: T2, Bromodomain-containing protein 4; assay: Inhibition of human partial length BRD4 BD1 (N44 to E168 residues) expressed in bacterial expression system by BROMOscan assay
[4] = molecular target: T3, ATPase family AAA domain-containing protein 2 (Homo sapiens) (UniProt Q6PL18); assay: Inhibition of human partial length ATAD2 (Q981 to R1108 residues) expressed in bacterial expression system at 10 uM measured by BROMOscan assay
T3 sequence (whole entry): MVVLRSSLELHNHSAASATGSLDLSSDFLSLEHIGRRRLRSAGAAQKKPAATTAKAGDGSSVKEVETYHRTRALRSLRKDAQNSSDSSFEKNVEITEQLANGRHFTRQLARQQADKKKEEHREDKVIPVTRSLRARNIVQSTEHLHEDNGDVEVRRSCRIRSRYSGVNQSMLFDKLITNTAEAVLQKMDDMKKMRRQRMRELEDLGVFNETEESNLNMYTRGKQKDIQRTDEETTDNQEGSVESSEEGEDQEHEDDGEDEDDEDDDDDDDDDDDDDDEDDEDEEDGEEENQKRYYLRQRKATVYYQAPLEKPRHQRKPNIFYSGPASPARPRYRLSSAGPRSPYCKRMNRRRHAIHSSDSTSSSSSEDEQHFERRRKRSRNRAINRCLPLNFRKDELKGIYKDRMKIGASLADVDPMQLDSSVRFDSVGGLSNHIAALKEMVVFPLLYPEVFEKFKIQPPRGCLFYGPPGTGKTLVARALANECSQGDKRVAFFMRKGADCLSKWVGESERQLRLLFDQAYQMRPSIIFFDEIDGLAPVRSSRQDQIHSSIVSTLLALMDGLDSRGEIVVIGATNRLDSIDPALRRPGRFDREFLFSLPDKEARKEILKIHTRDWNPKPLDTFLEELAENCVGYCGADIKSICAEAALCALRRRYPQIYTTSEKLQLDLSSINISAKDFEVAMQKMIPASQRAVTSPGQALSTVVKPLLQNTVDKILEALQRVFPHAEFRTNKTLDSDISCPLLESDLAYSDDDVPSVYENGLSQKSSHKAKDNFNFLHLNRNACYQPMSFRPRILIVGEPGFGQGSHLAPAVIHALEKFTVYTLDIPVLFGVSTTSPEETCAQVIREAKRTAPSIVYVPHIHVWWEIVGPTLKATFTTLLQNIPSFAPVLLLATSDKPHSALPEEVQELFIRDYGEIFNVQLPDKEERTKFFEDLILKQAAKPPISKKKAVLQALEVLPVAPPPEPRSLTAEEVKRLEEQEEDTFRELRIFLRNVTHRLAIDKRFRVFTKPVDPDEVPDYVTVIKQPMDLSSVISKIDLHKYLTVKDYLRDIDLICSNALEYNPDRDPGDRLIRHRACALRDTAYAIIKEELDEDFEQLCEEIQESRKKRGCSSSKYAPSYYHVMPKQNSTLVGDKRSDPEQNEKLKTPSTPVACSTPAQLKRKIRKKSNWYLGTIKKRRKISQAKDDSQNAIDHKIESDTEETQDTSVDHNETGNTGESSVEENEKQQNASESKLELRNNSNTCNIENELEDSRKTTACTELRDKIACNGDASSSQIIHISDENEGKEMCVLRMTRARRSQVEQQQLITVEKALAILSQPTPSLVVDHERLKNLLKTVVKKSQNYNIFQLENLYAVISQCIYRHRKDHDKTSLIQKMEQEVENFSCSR

[5] = molecular target: Transcription initiation factor TFIID subunit 1 (Homo sapiens, UniProt P21675); assay: Inhibition of human partial length TAF1 bromodomain 2 (D1521 to D1656 residues) expressed in bacterial expression system by BROMOscan assay
[6] = Intrinsic clearance in human microsomes; assay type: ADME, Microsome
[7] = Lipophilicity, logD of the compound at pH 7.4 by chromatographic method; assay type: physicochemical; details: buffer
[8] = molecular target: T2, Bromodomain-containing protein 4; assay: Inhibition of BRD4 BD2 (unknown origin) measured by TR-FRET assay

Transcription initiation factor TFIID subunit 1, sequence (P21675 whole entry, the tested form may be a part): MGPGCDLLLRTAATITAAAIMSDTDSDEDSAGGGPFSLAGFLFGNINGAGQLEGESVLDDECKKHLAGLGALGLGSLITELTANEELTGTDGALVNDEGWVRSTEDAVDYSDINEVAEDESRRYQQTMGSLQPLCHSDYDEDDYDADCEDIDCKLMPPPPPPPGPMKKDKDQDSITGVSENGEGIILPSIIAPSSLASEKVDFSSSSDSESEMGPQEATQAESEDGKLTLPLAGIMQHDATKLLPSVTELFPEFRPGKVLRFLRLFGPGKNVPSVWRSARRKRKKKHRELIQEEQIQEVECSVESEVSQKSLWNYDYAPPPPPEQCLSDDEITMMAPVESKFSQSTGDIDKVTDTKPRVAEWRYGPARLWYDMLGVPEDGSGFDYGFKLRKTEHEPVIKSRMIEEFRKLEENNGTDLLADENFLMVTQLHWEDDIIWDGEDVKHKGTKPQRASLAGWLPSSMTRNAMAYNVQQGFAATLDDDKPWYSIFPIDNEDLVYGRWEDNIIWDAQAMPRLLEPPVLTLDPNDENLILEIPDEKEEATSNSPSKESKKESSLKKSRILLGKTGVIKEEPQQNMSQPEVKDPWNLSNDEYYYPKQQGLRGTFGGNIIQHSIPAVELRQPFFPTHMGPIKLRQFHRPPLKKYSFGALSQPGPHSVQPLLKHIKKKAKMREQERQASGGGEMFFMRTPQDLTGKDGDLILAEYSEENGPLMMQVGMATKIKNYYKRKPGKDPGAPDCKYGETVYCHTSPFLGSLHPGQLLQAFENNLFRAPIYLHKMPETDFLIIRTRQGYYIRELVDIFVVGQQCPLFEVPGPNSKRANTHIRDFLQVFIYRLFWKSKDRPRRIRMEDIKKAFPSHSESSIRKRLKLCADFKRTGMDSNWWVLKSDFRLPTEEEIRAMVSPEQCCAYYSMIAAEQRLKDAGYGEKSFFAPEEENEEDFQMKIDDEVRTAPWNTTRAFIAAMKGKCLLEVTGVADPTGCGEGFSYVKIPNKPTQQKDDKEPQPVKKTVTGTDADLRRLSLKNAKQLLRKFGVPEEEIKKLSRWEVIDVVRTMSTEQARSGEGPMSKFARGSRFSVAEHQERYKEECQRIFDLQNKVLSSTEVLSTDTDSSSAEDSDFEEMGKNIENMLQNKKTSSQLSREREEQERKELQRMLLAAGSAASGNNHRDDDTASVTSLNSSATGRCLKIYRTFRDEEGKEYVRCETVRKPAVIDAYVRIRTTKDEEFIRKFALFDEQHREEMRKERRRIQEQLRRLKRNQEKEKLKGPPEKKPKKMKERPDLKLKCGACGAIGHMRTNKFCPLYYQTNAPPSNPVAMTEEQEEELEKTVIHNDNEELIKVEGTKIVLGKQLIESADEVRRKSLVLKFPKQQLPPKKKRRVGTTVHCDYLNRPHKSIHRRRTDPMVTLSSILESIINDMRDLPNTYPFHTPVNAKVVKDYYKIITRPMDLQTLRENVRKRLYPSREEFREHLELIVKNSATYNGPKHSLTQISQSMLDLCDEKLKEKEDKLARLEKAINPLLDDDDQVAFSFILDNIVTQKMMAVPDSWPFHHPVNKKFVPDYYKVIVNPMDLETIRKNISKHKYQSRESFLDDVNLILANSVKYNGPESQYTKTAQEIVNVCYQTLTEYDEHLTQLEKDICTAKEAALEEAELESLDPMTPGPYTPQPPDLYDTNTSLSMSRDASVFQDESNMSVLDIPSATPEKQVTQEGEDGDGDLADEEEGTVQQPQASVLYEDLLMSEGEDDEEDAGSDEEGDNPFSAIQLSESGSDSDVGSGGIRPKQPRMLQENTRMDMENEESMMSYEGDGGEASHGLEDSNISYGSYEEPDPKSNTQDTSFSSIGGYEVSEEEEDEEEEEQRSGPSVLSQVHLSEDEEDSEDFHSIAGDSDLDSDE

Ki [1]: 5.01 µM | IC50 [2]: > 20 µM | Ki [3]: > 5.01 µM | inhibition [4]: 24% | Ki [5]: 0.000794 µM | CLint scaled [6]: 20.4 mL/min/kg | chromatographic logD [7]: 2.7 | IC50 [8]: 5.01 µM
SMILES: Cc1cc2c(C3=CCOCC3)cnc(NC3CCN(C(=O)C(F)(F)CN)CC3)c2[nH]c1=O
